Results from publication doi:10.1101/2023.10.01.560353v1 (bioRxiv, 2023).
Values after ≈ are worked out from the molar mass of the structure shown. Peptide text beside a SMILES is read from it.

How the values were obtained:
[1] = test system: A. baumannii ATCC 19606; assay: MIC, broth microdilution; format: cell-based, Acinetobacter baumannii; conditions: broth microdilution in LB, 20 h at 37 °C, OD600; mean of three replicates
[2] = test system: 11 clinically relevant bacterial pathogens; assay: MIC over the panel of pathogens; format: cell-based; conditions: Table S17; lowest MIC over the strains tested
[3] = test system: A. baumannii ATCC 19606; assay: Neutropenic thigh infection mouse model; format: in vivo, CD-1 mice; conditions: single intraperitoneal dose at MIC, n = 6
[4] = test system: A. baumannii ATCC19606; assay: Outer membrane permeabilization, NPN uptake; format: cell-based, Acinetobacter baumannii; conditions: peptide at its MIC; polymyxin B as positive control; three replicates

Compound | Minimal Inhibitory Concentration: A. baumannii ATCC19606 [1] | MIC (lowest MIC value obtained in the antimicrobial activity assays) [2] | reduction of the bacterial load four days post-treatment [3] | reduction of the bacterial load two days post-treatment [3] | outer membrane permeabilization (NPN uptake) [4]
CC(C)C[C@H](NC(=O)CNC(=O)[C@H](CCCNC(=N)N)NC(=O)[C@H](CCCCN)NC(=O)[C@H](CCCNC(=N)N)NC(=O)[C@@H](N)CCCCN)C(=O)N[C@@H](CCCCN)C(=O)N[C@@H](CC(C)C)C(=O)N[C@@H](C)C(=O)N[C@H](C(=O)N[C@@H](C)C(=O)N[C@@H](CC(C)C)C(=O)N[C@@H](CO)C(=O)N[C@@H](CC(C)C)C(=O)N[C@@H](CC(N)=O)C(=O)N[C@@H](CC(N)=O)C(=O)N[C@@H](CCCCN)C(=O)N[C@@H](Cc1ccccc1)C(=O)O)[C@@H](C)O [Mylodonin-2] (H-KRKRGLKLATALSLNNKF-OH) | 64 µmol/L | 32000 mM (≈ 65900 mg/mL) | – | – | –
CC[C@H](C)[C@H](N)C(=O)N[C@@H](Cc1ccccc1)C(=O)N[C@@H](CC(C)C)C(=O)N[C@@H](Cc1c[nH]cn1)C(=O)N[C@@H](CC(C)C)C(=O)N[C@@H](CCCCN)C(=O)N[C@H](C(=O)N[C@@H](CC(C)C)C(=O)N[C@@H](CCCCN)C(=O)N[C@H](C(=O)N[C@H](C(=O)N[C@@H](CCCNC(=N)N)C(=O)N[C@@H](CC(C)C)C(=O)N[C@@H](CC(C)C)C(=O)O)[C@@H](C)CC)[C@@H](C)CC)[C@@H](C)CC [Elephasin-2] (H-IFLHLKILKIIRLL-OH) | 1 µmol/L | 1000 mM (≈ 1730 mg/mL) | 3-4 orders of magnitude | – | –
CC[C@H](C)[C@H](NC(=O)[C@H](CCCCN)NC(=O)[C@H](CCCCN)NC(=O)[C@H](Cc1ccccc1)NC(=O)[C@H](Cc1ccccc1)NC(=O)[C@@H](NC(=O)[C@@H](NC(=O)[C@H](CO)NC(=O)[C@H](CCCCN)NC(=O)[C@@H](NC(=O)[C@@H](NC(=O)[C@H](Cc1c[nH]c2ccccc12)NC(=O)[C@H](CCCCN)NC(=O)[C@H](CCCCN)NC(=O)[C@@H](NC(=O)[C@H](CCC(=O)O)NC(=O)[C@H](CCCCN)NC(=O)[C@H](CC(C)C)NC(=O)[C@@H](NC(=O)[C@H](CCCCN)NC(=O)[C@H](CCCNC(=N)N)NC(=O)[C@H](CC(C)C)NC(=O)[C@H](CC(C)C)NC(=O)[C@@H](N)CCCCN)C(C)C)[C@@H](C)O)C(C)C)[C@@H](C)CC)C(C)C)C(C)C)C(=O)N[C@@H](CCCNC(=N)N)C(=O)N[C@@H](CCCCN)C(=O)O [Hesperelin-1] (H-KLLRKVLKETKKWVIKSVVFFKKIRK-OH) | 8 µmol/L | 2000 mM (≈ 6490 mg/mL) | – | – | –
CC[C@H](C)[C@H](NC(=O)[C@H](CO)NC(=O)[C@H](CCCNC(=N)N)NC(=O)[C@H](C)NC(=O)[C@H](Cc1c[nH]cn1)NC(=O)[C@H](CC(C)C)NC(=O)[C@H](CS)NC(=O)[C@H](C)NC(=O)[C@@H](N)CCCNC(=N)N)C(=O)N[C@@H](C)C(=O)N[C@@H](CCCNC(=N)N)C(=O)N[C@@H](CC(C)C)C(=O)N[C@@H](Cc1c[nH]cn1)C(=O)N[C@@H](CCCCN)C(=O)N[C@@H](CCCNC(=N)N)C(=O)N[C@@H](Cc1c[nH]c2ccccc12)C(=O)N[C@@H](CCCNC(=N)N)C(=O)N1CCC[C@H]1C(=O)N[C@H](C(=O)N[C@@H](Cc1c[nH]cn1)C(=O)N[C@@H](CCC(N)=O)C(=O)NCC(=O)N[C@@H](CC(C)C)C(=O)NCC(=O)N[C@@H](CC(C)C)C(=O)N[C@@H](CCCCN)C(=O)O)C(C)C [Mammuthusin-2] (H-RACLHARSIARLHKRWRPVHQGLGLK-OH) | 32 µmol/L | 32000 mM (≈ 97900 mg/mL) | 3-4 orders of magnitude | – | –
polymyxin B [reference compound] | – | – | – | 4-5 orders of magnitude | –
CC[C@H](C)[C@H](NC(=O)[C@H](CO)NC(=O)CNC(=O)[C@H](CC(C)C)NC(=O)[C@H](CC(C)C)NC(=O)[C@H](CC(C)C)NC(=O)[C@H](CCCNC(=N)N)NC(=O)[C@H](CCCCN)NC(=O)[C@@H](NC(=O)[C@H](CO)NC(=O)[C@H](CC(N)=O)NC(=O)[C@@H](NC(=O)[C@H](CC(C)C)NC(=O)[C@@H](N)CC(C)C)[C@@H](C)CC)[C@@H](C)CC)C(=O)N[C@@H](CC(C)C)C(=O)O [Arctodutin-1] (H-LLINSIKRLLLGSIL-OH) | – | 2000 mM (≈ 3330 mg/mL) | – | – | permeabilized the outer membrane
CC[C@H](C)[C@H](N)C(=O)N[C@@H](CO)C(=O)N[C@@H](CC(C)C)C(=O)N[C@@H](Cc1ccccc1)C(=O)N[C@H](C(=O)N[C@@H](CCCNC(=N)N)C(=O)N1CCC[C@H]1C(=O)N[C@@H](CC(C)C)C(=O)N[C@@H](C)C(=O)N[C@@H](CC(C)C)C(=O)NCC(=O)N[C@H](C(=O)N[C@@H](CCCNC(=N)N)C(=O)N[C@@H](CC(C)C)C(=O)O)C(C)C)[C@@H](C)CC [Psephotellin-1] (H-ISLFIRPLALGVRL-OH) | – | 16000 mM (≈ 25100 mg/mL) | – | – | permeabilized the outer membrane
CC[C@H](C)[C@H](NC(=O)[C@@H](N)CC(C)C)C(=O)N[C@H](C(=O)N[C@@H](CS)C(=O)N[C@@H](Cc1ccccc1)C(=O)N[C@@H](Cc1ccccc1)C(=O)N[C@@H](CCCNC(=N)N)C(=O)N[C@@H](CCC(N)=O)C(=O)N[C@@H](CC(C)C)C(=O)N[C@@H](CCCCN)C(=O)N[C@@H](Cc1ccccc1)C(=O)N[C@@H](Cc1c[nH]cn1)C(=O)N[C@@H](Cc1ccccc1)C(=O)O)C(C)C [Megalocerin-1] (H-LIVCFFRQLKFHF-OH) | 8 µmol/L | 8000 mM (≈ 13600 mg/mL) | – | – | –
